Experimental data: patent publication US8759334B2, “Compounds useful for the treatment of metabolic and inflammatory diseases” (Galapagos NV, priority 2011, dated 2014)

Columns and labels:
GPR43 [1] = biological target: T1, GPR43 (Homo sapiens, UniProt O15552); experiment: Calcium mobilization assay without probenecid; format: cell-based; conditions: GPR43 stably expressing cells, triggered with sodium acetate at EC80, read-out: GPR43 assay without probenicid IC50
T1 construct: expressed in transfected cells
T1 sequence (O15552 1-330): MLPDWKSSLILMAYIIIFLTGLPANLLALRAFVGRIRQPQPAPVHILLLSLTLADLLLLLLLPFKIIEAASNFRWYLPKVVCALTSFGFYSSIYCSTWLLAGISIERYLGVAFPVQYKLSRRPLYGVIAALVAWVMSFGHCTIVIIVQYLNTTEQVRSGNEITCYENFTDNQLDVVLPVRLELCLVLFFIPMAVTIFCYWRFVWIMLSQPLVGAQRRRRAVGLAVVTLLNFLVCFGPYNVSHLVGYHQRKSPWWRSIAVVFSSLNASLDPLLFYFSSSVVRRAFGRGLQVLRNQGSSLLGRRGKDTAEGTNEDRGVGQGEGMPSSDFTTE
Procedure, shortened: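 In GPR43-expressing cells loaded with a Calcium 4 dye, antagonism was tested by a 15 min compound preincubation at 37 °C, then a sodium acetate challenge at EC80, with Ca-flux read on injection. For agonism, Ca-flux was recorded directly on compound injection.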

GPR43 [2] = biological target: T1, GPR43; experiment: Calcium mobilization assay with probenecid; format: cell-based; conditions: GPR43 stably expressing cells; triggered with sodium acetate at EC80; 2.5 mM probenecid; read-out: GPR43 assay with probenicid IC50
Procedure, shortened: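 Cells stably expressing GPR43 plated overnight at 37 °C, then loaded 2 h with Calcium 4 dye plus 2.5 mM probenecid. […]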

GPR43 [3] = biological target: T1, GPR43; experiment: [35S]GTPγS binding assay; format: biochemical; conditions: membranes from stable cell line over expressing GPR43; sodium acetate at EC80
Procedure: The assay was performed in a 96 well plate where the following reagents were added. […] In a last step, 30 μL of a mixture consisting of membranes-GTPγS-SpA beads was added (mixture consists of 10 μg/well membranes derived from stable cell line over expressing GPR43 (membranes were pre-incubated with 3 μM GDP for 15 minutes at 4° C.), 0.1 nM [35S]GTPγS (Perkin Elmer, NEG030) and 0.5 mg/well PVT-WGA SpA beads (perkin Elmer, RPNQ0001)). […] Reactions were incubated for 240 minutes at room temperature followed by centrifugation at 2000 rpm for 15 minutes. Plates were read on a Topcount immediately after centrifugation (readout time, 1 minute/well).

human neutrophils = experiment: Neutrophil migration assay; format: cell-based; conditions: neutrophils from human buffy coat, migration towards sodium acetate, read-out: human neutrophil migration inhibition EC50
Procedure: G Protein-Coupled Receptor 43 (GPR43) was described as an essential player in the process of neutrophil recruitment during intestinal inflammation.
The effect of agonists or antagonists for GPR43 can therefore be assayed in a neutrophil migration test. In the neutrophil migration assay, neutrophils, isolated from buffy coats from human volunteers, are treated with a compound for 30 minutes. Subsequently, the neutrophils are transferred to the upper wells of a Corning HTS transwell 96 permeable support system, of which the lower wells are filled with a sodium acetate solution.
The ACD buffer consists of 140 mM citric acid, 200 mM sodium citrate and 220 mM dextrose. The 6% dextran/0.9% NaCl solution consists of 15 g dextran T2000 and 2.25 g NaCl dissolved in 250 mL H2O.
A human buffy coat is diluted with an equal volume of ice cold DPBS. 20 mL of the diluted buffy coat is gently mixed with 4 mL of ACD buffer. Then, 12 mL of the 6% dextran/0.9% NaCl solution is added to the mixture and the samples are inverted gently up to 20 times. The total volume is transferred to a new recipient and incubated at room temperature for 1 h for complete separation of the two phases to occur. The yellowish supernatant is then transferred to a clean centrifugation tube and centrifuged for 12 minutes at 1300 rpm and 4° C. After centrifugation, the supernatant is discarded and the remaining cell pellet is rapidly resuspended in 12 mL of ice-cold H2O for red blood cell lysis to occur. After 20 seconds, 4 mL of ice-cold 0.6 M KCl is added. Samples are mixed carefully and centrifuged for 6 minutes at 1300 rpm, 4° C. The supernatant is discarded and the red blood cell lysis procedure is repeated one more time. […] After centrifugation for 12 min at 1300 rpm, 4° C., the supernatant is removed and the cell pellet, containing the neutrophils, is resuspended in 25 mL chemotaxis buffer.
A cell suspension of 8.9×10^6 cells per milliliter is prepared. 20 μL of compound solution in chemotaxis buffer is added to 180 μl cell suspension. The mixture is incubated at 37° C. for 30 minutes with Intermediate resuspension of the cells after 15 minutes. […] The receiver well of the transwell system is then filled with 200 μL chemotaxis buffer containing compound and chemotactic agent (sodium acetate). After incubation at 37° C. in 5% CO2 for 1 h, the upper plate of the transwell system is removed and the cell suspension in the receiver plate is transferred to a 96-well V-bottom plate. 50 μL of DPBS is added to the receiver plate to prevent remaining cells from drying out. The V-bottom plate is centrifuged for 6 minutes at 1500 rpm. The supernatant is removed and the cells are resuspended in 50 μL DPBS. The cells are then transferred back to the receiver plate of the transwell system. […] The plate is incubated for 10 minutes in the dark, while shaking. 170 μL of cell lysate is then transferred to a white 96-well plate and luminescence is measured. The detected luminescent signal is considered as linearly related to the number of migrated cells.

| Compound | IC50 (GPR43 [1]) [nM] | IC50 (GPR43 [2]) [nM] | IC50 (GPR43 [3]) [nM] | EC50 (human neutrophils) [nM] |
| --- | --- | --- | --- | --- |
| Cc1cc(C)cc(CC(=O)N2CCC2(C)C(=O)N(CC(=O)O)Cc2ccc3cc[nH]c3c2)c1 (stereo not shown) [Compound 96, [{1-[2-(3,5-Dimethyl-phenyl)-acetyl]-2-methyl-azetidine-2-carbonyl}-(1H-indol-6-ylmethyl)-amino]-acetic acid] | 101 to 500 | 101 to 500 | – | 0.01 to 100 |
| CC1(C(=O)N(CCCC(=O)O)Cc2ccc(Cl)cc2)CCN1C(=O)c1csc2ccccc12 (stereo not shown) [Compound 115, 4-[[1-(Benzo[b]thiophene-3-carbonyl)-2-methyl-azetidine-2-carbonyl]-(4-chloro-benzyl)-amino]-butyric acid] | – | 0.01 to 100 | 101 to 500 | 0.01 to 100 |
| CC1(C(=O)N(CCCC(=O)O)Cc2ccc(C(F)(F)F)cc2)CCN1C(=O)Cc1csc2ccccc12 (stereo not shown) [Compound 144, 4-[[1-(2-Benzo[b]thiophen-3-yl-acetyl)-2-methyl-azetidine-2-carbonyl]-(4-trifluoromethyl-benzyl)-amino]-butyric acid] | – | 0.01 to 100 | 51 to 100 | 0.01 to 100 |
| CC1(C(=O)N(CCC(=O)O)Cc2ccc(Cl)cc2)CCN1C(=O)c1csc2ccccc12 (stereo not shown) [Compound 155, 3-[[1-(Benzo[b]thiophene-3-carbonyl)-2-methyl-azetidine-2-carbonyl]-(4-chloro-benzyl)-amino]-propionic acid] | – | 0.01 to 100 | > 501 | 0.01 to 100 |
| CC1(C(=O)N(CCCC(=O)O)c2ccc(Cl)cc2)CCN1C(=O)c1csc2ccccc12 (stereo not shown) [Compound 194, 4-[[1-(Benzo[b]thiophene-3-carbonyl)-2-methyl-azetidine-2-carbonyl]-(4-chloro-phenyl)-amino]-butyric acid] | – | 0.01 to 100 | > 501 | – |
| CCC1(C(=O)N(CCCC(=O)O)Cc2cccc(Cl)c2)CCN1C(=O)c1csc2ccccc12 (stereo not shown) [Compound 195, 4-[[1-(Benzo[b]thiophene-3-carbonyl)-2-ethyl-azetidine-2-carbonyl]-(3-chloro-benzyl)-amino]-butyric acid] | – | 0.01 to 100 | 101 to 500 | – |
| C[C@@H](c1ccc(Cl)cc1)N(CCCC(=O)O)C(=O)[C@@]1(C)CCN1C(=O)c1csc2ccccc12 [Compound 198, 4-{[(R)-1-(Benzo[b]thiophene-3-carbonyl)-2-methyl-azetidine-2-carbonyl]-[(S)-1-(4-chloro-phenyl)-ethyl]-amino}-butyric acid] | – | 0.01 to 100 | 101 to 500 | – |

More lines, now with the values ahead:

| IC50 (GPR43 [1]) [nM] | IC50 (GPR43 [2]) [nM] | IC50 (GPR43 [3]) [nM] | EC50 (human neutrophils) [nM] | Compound |
| --- | --- | --- | --- | --- |
| 0.01 to 100 | > 1000 | 101 to 500 | – | CC1(C(=O)N(CCO)Cc2ccc(Cl)cc2)CCN1C(=O)Cc1csc2ccccc12 (stereo not shown) [Compound 67, 1-(2-Benzo[b]thiophen-3-yl-acetyl)-2-methyl-azetidine-2-carboxylic acid (4-chloro-benzyl)-(2-hydroxy-ethyl)-amide] |
| – | 0.01 to 100 | 101 to 500 | 0.01 to 100 | CC1(C(=O)N(CCCC(=O)O)Cc2ccc3cc[nH]c3c2)CCN1C(=O)Cc1csc2ccccc12 (stereo not shown) [Compound 128, 4-[[1-(2-Benzo[b]thiophen-3-yl-acetyl)-2-methyl-azetidine-2-carbonyl]-(1H-indol-6-ylmethyl)-amino]-butyric acid] |
| – | 0.01 to 100 | > 501 | 0.01 to 100 | CC1(C(=O)N(CCCC(=O)O)Cc2ccc3cc[nH]c3c2)CCN1C(=O)c1csc2ccccc12 (stereo not shown) [Compound 134, 4-[[1-(Benzo[b]thiophene-3-carbonyl)-2-methyl-azetidine-2-carbonyl]-(1H-indol-6-ylmethyl)-amino]-butyric acid] |
| – | 0.01 to 100 | > 501 | 101 to 500 | CC1(C(=O)N(CCC(=O)O)Cc2cccc(Cl)c2)CCN1C(=O)c1csc2ccccc12 (stereo not shown) [Compound 169, 3-[[1-(Benzo[b]thiophene-3-carbonyl)-2-methyl-azetidine-2-carbonyl]-(3-chloro-benzyl)-amino]-propionic acid] |
| – | 0.01 to 100 | 101 to 500 | – | CC1(C(=O)N(CCCS(N)(=O)=O)Cc2ccc(Cl)cc2)CCN1C(=O)c1csc2ccccc12 (stereo not shown) [Compound 182, 1-(Benzo[b]thiophene-3-carbonyl)-2-methyl-azetidine-2-carboxylic acid (4-chloro-benzyl)-(3-sulfamoyl-propyl)-amide] |
| – | 0.01 to 100 | 101 to 500 | – | CC1(C(=O)N(CCCS(N)(=O)=O)Cc2cccc(Cl)c2)CCN1C(=O)c1csc2ccccc12 (stereo not shown) [Compound 187, 1-(Benzo[b]thiophene-3-carbonyl)-2-methyl-azetidine-2-carboxylic acid (3-chloro-benzyl)-(3-sulfamoyl-propyl)-amide] |
